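Exposure lasted 48 hours, with cells grown in 96-well plates and compounds tested at five concentrations. GI50 = concentration required for 50% inhibition of growth.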 Activity calls are given as the source filed them. Rule as the data show it: active = GI50 up to about 1.1 µM and inactive = higher.
How the values were obtained:
Assay in all cases: NCI anticancer screen, dose series, 48 h
[1] = tested on: A549
[2] = tested on: HCT-15
[3] = tested on: K562
[4] = tested on: KM12
[5] = tested on: M14
[6] = tested on: MDA-MB-435
[7] = tested on: Malme-3M
[8] = tested on: OVCAR-4
[9] = tested on: OVCAR-8
[10] = tested on: RXF 393
[11] = tested on: SF-295
[12] = tested on: SK-MEL-5
[13] = tested on: SNB-19
[14] = tested on: SNB-75
[15] = tested on: SR
[16] = tested on: SW-620
[17] = tested on: T47D
[18] = tested on: U-251
[19] = tested on: UACC-62
[20] = tested on: UO-31

Compound | GI50 [1] | GI50 [2] [µM] | GI50 [3] | GI50 [4] | GI50 [5] | GI50 [6] | GI50 [7] | GI50 [8] | GI50 [9] | GI50 [10] | GI50 [11] | GI50 [12] | GI50 [13] | GI50 [14] | GI50 [15] | GI50 [16] | GI50 [17] | GI50 [18] | GI50 [19] | GI50 [20]
Nc1ncnc2c1ncn2CCCCC(=O)O | > 100 µM (inactive) | > 100 | > 100 µM (inactive) | > 100 µM (inactive) | > 100 µM (inactive) | > 100 µM (inactive) | > 100 µM (inactive) | > 100 µM (inactive) | > 100 µM (inactive) | > 100 µM (inactive) | > 100 µM (inactive) | > 100 µM (inactive) | > 100 µM (inactive) | > 100 µM (inactive) | > 100 µM (inactive) | > 100 µM (inactive) | > 100 µM (inactive) | > 100 µM (inactive) | > 100 µM (inactive) | > 100 µM (inactive)
COC(=O)C12OCC34C(CC5C(C)=C(O)C(=O)CC5(C)C3C(O)C1O)OC(=O)C(OC(=O)C=C(C)C)C24 (stereo not given) | > 500 µM (inactive) | > 500 | > 486 µM (inactive) | 411 µM (inactive) | < 0.215 µM (active) | < 0.215 µM (active) | 228 µM (inactive) | < 0.215 µM (active) | > 500 µM (inactive) | 303 µM (inactive) | > 500 µM (inactive) | 191 µM (inactive) | 368 µM (inactive) | 318 µM (inactive) | 0.215 µM (active) | > 500 µM (inactive) | 0.0132 µM (active) | 316 µM (inactive) | > 500 µM (inactive) | > 500 µM (inactive)
COC(=O)/C=C/C1(O)C=CC(=O)C=C1 | 8.3 µM (inactive) | 2.66 | 3.15 µM (inactive) | 2.32 µM (inactive) | 1.79 µM (inactive) | 5.13 µM (inactive) | 2.62 µM (inactive) | 3.94 µM (inactive) | 3.4 µM (inactive) | 3.12 µM (inactive) | 11 µM (inactive) | 4.65 µM (inactive) | 3.83 µM (inactive) | 9.86 µM (inactive) | 2.55 µM (inactive) | 5.7 µM (inactive) | 2.67 µM (inactive) | 3.67 µM (inactive) | 3 µM (inactive) | 1.7 µM (inactive)
CN(C)CCNC(=O)c1cccc2c(NCCN(C)C)c3ccccc3nc12 | 1.91 µM (inactive) | 3.63 | 1.73 µM (inactive) | 2.79 µM (inactive) | 7.1 µM (inactive) | 2.94 µM (inactive) | 3.85 µM (inactive) | 2.49 µM (inactive) | 3.19 µM (inactive) | 3.6 µM (inactive) | 4.93 µM (inactive) | 3.48 µM (inactive) | 3.24 µM (inactive) | 5.06 µM (inactive) | 0.982 µM (active) | 2.33 µM (inactive) | 14.6 µM (inactive) | 2.69 µM (inactive) | 4.55 µM (inactive) | 2.92 µM (inactive)
O=C1c2c(Br)sc(Br)c2[C@H]2OC(=S)N[C@@H]12 | 17.1 µM (inactive) | 1.88 | 2.29 µM (inactive) | 14.4 µM (inactive) | 1.95 µM (inactive) | 2.96 µM (inactive) | 3.73 µM (inactive) | 6.07 µM (inactive) | 3.5 µM (inactive) | 3.14 µM (inactive) | 15.2 µM (inactive) | 11 µM (inactive) | 15.2 µM (inactive) | 16.1 µM (inactive) | 1.67 µM (inactive) | 2.43 µM (inactive) | 12.1 µM (inactive) | 2.78 µM (inactive) | 11.8 µM (inactive) | 1.75 µM (inactive)
Cc1n[nH]c(=O)c2cc(-c3ccccc3)[nH]c12 | 49 µM (inactive) | 54.2 | 38.6 µM (inactive) | 88.5 µM (inactive) | 53.3 µM (inactive) | 51.9 µM (inactive) | 64.1 µM (inactive) | 52.6 µM (inactive) | 72.3 µM (inactive) | > 100 µM (inactive) | 35.8 µM (inactive) | 41.6 µM (inactive) | > 100 µM (inactive) | 39.2 µM (inactive) | 46.8 µM (inactive) | > 100 µM (inactive) | 27.5 µM (inactive) | 51.2 µM (inactive) | 33.8 µM (inactive) | 49.3 µM (inactive)
c1csc(-c2csc(-c3ccsc3)c2)c1 | 99.5 µM (inactive) | > 100 | > 100 µM (inactive) | > 100 µM (inactive) | > 75.9 µM (inactive) | > 100 µM (inactive) | 56.4 µM (inactive) | > 100 µM (inactive) | > 100 µM (inactive) | > 46.9 µM (inactive) | > 100 µM (inactive) | > 100 µM (inactive) | > 100 µM (inactive) | > 92 µM (inactive) | 97.3 µM (inactive) | > 100 µM (inactive) | > 45.1 µM (inactive) | > 100 µM (inactive) | > 100 µM (inactive) | > 70.1 µM (inactive)
COc1cc(-c2oc3ccccc3c(=O)c2O)cc(OC)c1OC | 9.02 µM (inactive) | 4.62 | 6.71 µM (inactive) | > 100 µM (inactive) | 14 µM (inactive) | > 100 µM (inactive) | > 94.6 µM (inactive) | 7 µM (inactive) | 9.66 µM (inactive) | 15.6 µM (inactive) | 35.7 µM (inactive) | 6.58 µM (inactive) | > 58.9 µM (inactive) | 6.82 µM (inactive) | 3.03 µM (inactive) | > 80.2 µM (inactive) | 6 µM (inactive) | 8.77 µM (inactive) | 6.5 µM (inactive) | 4.63 µM (inactive)
COc1ccc2c(-c3csc(-c4c[nH]c5ccccc45)n3)c[nH]c2c1 | 4.98 µM (inactive) | 1.45 | 3.44 µM (inactive) | 3.21 µM (inactive) | 7.76 µM (inactive) | 13.8 µM (inactive) | 4.95 µM (inactive) | 11 µM (inactive) | 7.85 µM (inactive) | 5.01 µM (inactive) | 9.64 µM (inactive) | 7.18 µM (inactive) | 13.2 µM (inactive) | 22 µM (inactive) | 1.56 µM (inactive) | 6.92 µM (inactive) | 6.32 µM (inactive) | 5.19 µM (inactive) | 11.5 µM (inactive) | 5.9 µM (inactive)
Cc1c(Cl)ccc2c1NC(=O)C2(O)CC(=O)c1ccc(Cl)cc1Cl (stereo not given) | > 50 µM (inactive) | > 50 | 19.1 µM (inactive) | > 50 µM (inactive) | > 50 µM (inactive) | > 50 µM (inactive) | > 47.9 µM (inactive) | > 50 µM (inactive) | > 50 µM (inactive) | 20.1 µM (inactive) | > 50 µM (inactive) | > 50 µM (inactive) | > 50 µM (inactive) | 12.8 µM (inactive) | 0.264 µM (active) | > 50 µM (inactive) | > 50 µM (inactive) | 22.6 µM (inactive) | > 50 µM (inactive) | > 50 µM (inactive)
